Reference: ChEMBL document CHEMBL1156829 (Proc Natl Acad Sci U S A, 2008)

Assays:
Plasmodium falciparum [1] = test: NOVARTIS: Inhibition of Plasmodium falciparum 3D7 (drug-susceptible) proliferation in erythrocyte-based infection assay; type: functional, organism-based; details: Plasmodium falciparum, 3D7
Plasmodium falciparum [2] = test: NOVARTIS: Inhibition of Plasmodium falciparum W2 (drug-resistant) proliferation in erythrocyte-based infection assay; type: functional, organism-based; details: Plasmodium falciparum, W2; read-out: EC50
[3] = NOVARTIS: Cytotoxicity against human hepatocellular carcinoma cell line (Huh7); type: toxicity, cell-based, Huh-7; details: Huh7 cells (hepatocellular carcinoma cell line)

Row | SMILES | EC50 (Plasmodium falciparum [1]) | EC50 (Plasmodium falciparum [2]) | CC50 [3]
1 | O=C(NNc1ccccc1F)c1c(F)cccc1Cl | > 1.25 µM | < 0.0316 µM | > 10 µM
2 | CC(C)CNC(=O)c1cnc(NCCCN2CCCCC2C)nc1NCC(C)C (stereo unspecified) | 0.344 µM | 1.46 µM | > 10 µM
3 | OC(CNC1CCN(Cc2ccccc2)CC1)COc1ccc(Br)cc1 (stereo unspecified) | 0.745 µM | 0.499 µM | > 10 µM
4 | c1ccc2c(NCCNc3c4ccccc4nc4ccccc34)c3ccccc3nc2c1 | 0.0829 µM | 0.858 µM | 11.8 µM
5 | Cc1cccc(OCC(=O)Nc2cccc(NC(=O)COc3cccc(C)c3)n2)c1 | 0.237 µM | 1.16 µM | > 100 µM
6 | C=CCOc1c(Br)cc(C=c2sc3n(c2=O)C(c2ccc(OC)c(OC)c2)C(C(=O)OCC)=C(C)N=3)cc1OC (stereo unspecified) | > 12.5 µM | 0.576 µM | > 100 µM
7 | Cc1ccn2c(NC(C)(C)CC(C)(C)C)c(-c3ccccc3OC(=O)C(C)(C)C)nc2c1 | 0.52 µM | < 0.0079 µM | > 11.1 µM
8 | Cc1ccccc1N=c1oc2ccc3ccccc3c2cc1-c1nc2ccccc2[nH]1 | > 0.997 µM | > 1.25 µM | > 2.1 µM
9 | O=[N+]([O-])c1ccc(-c2ccc(C=NNc3nc(Nc4ccccc4)nc(Nc4ccccc4)n3)o2)cc1 | 0.875 µM | 0.933 µM | > 100 µM
10 | CCCC1(CCC)NC(=S)N(c2ccc(C)c(C)c2)N1 | > 1.25 µM | > 0.576 µM | > 10 µM
11 | CC1(C)C2CCC1(C)C(OCC[N+]1(Cc3ccccc3)CCCC1)C2 (stereo unspecified) | 0.161 µM | 0.195 µM | 12.7 µM
12 | COc1ccc2cc(CNCCCO)c(N3CCN(c4ccc(F)cc4)CC3)nc2c1 | 2.99 µM | 0.6 µM | 20.1 µM
13 | CCOC(=O)C1=C(C)NC2=C(C(=O)CC(c3ccc(OC)c(OC)c3)C2)C1c1ccc(Cl)c(Cl)c1 (stereo unspecified) | 0.229 µM | 0.105 µM | > 100 µM
14 | COc1cc(NC(C)CCCN(Cc2ccc(OC)c(OC)c2)C(=O)CCC2CCCC2)c2ncccc2c1 (stereo unspecified) | 0.687 µM | 0.333 µM | 3.99 µM
15 | N#Cc1cc2nc3c(nc2cc1C#N)-c1ccccc1C3=O | 6.97 µM | 2.56 µM | 33.2 µM
16 | Cn1c2c([n+](C)c1CCl)C(=O)c1ccccc1C2=O | 0.0031 µM | 0.00355 µM | > 10 µM
17 | CCOC(=O)c1cccc(N2C(N)=NC(N)=NC2(C)C)c1 | 0.148 µM | > 1.25 µM | > 10 µM
18 | CCCCNC(=O)C(CC)Sc1nnc(-c2ccc(C)cc2)c(-c2ccc(C)cc2)n1 (stereo unspecified) | 0.471 µM | 2.05 µM | > 100 µM
19 | O=C(O)CC/C(=C1/C=C(c2ccc(Cl)cc2)NC1=O)c1ccc(Cl)cc1 | > 1.65 µM | 0.256 µM | > 10 µM
20 | O=C(O)C(Cc1ccc([N+](=O)[O-])cc1)NS(=O)(=O)c1ccc(OC(F)(F)F)cc1 (stereo unspecified) | 0.58 µM | 0.00329 µM | > 10 µM
21 | Cc1cc(C)c(S(=O)(=O)N2CCCC2CNC(=O)c2cccc([N+](=O)[O-])c2)c(C)c1 (stereo unspecified) | 0.914 µM | 1.23 µM | > 100 µM
22 | COc1ccc(C2CC(c3c(-c4ccccc4)c4cc(Cl)ccc4[nH]c3=O)=NO2)cc1 (stereo unspecified) | 0.624 µM | > 0.359 µM | > 10 µM
23 | NNC(=O)C1CCCN1S(=O)(=O)c1ccc(Cl)cc1 (stereo unspecified) | 0.564 µM | 0.547 µM | > 10 µM
24 | CC(C)[C@@]1(NC(=O)[C@@H]2C[C@@H]3c4cccc5[nH]cc(c45)C[C@H]3N(C)C2)O[C@@]2(O)[C@@H]3CCCN3C(=O)[C@H](Cc3ccccc3)N2C1=O [DIHYDROERGOCRISTINE] | 1.25 µM | 0.449 µM | 33.1 µM
25 | N#Cc1cn(-c2ccc(Cl)cc2)c(=O)n(Cc2c(Cl)cccc2Cl)c1=O | 0.816 µM | > 1.25 µM | > 10 µM
26 | COc1ccc([N+](=O)[O-])cc1NC(=O)C(C)Nc1ccc(N(C)C)cc1 (stereo unspecified) | 0.343 µM | 0.86 µM | 34.2 µM
27 | COc1ccc(/C=C/C(=O)Nc2ccncc2)cc1OC | 0.593 µM | 0.828 µM | > 10 µM
